Measurements published in PMC5407626 (PLoS ONE, 2017).
Where “and” joins values, the source holds several entries; their conditions need not be identical. Equal values may be shown once. Read-outs that look alike come from different tables or passages of the source.

Columns and labels:
[1] = target: T1, recombinant mouse BCO1 (Mus musculus, UniProt Q9JJS6); test: In vitro inhibition of recombinant mouse BCO1 activity; assay type: biochemical
T1 construct: His-tag; made in house; host or cells: E. coli
T1 sequence (Q9JJS6 1-566): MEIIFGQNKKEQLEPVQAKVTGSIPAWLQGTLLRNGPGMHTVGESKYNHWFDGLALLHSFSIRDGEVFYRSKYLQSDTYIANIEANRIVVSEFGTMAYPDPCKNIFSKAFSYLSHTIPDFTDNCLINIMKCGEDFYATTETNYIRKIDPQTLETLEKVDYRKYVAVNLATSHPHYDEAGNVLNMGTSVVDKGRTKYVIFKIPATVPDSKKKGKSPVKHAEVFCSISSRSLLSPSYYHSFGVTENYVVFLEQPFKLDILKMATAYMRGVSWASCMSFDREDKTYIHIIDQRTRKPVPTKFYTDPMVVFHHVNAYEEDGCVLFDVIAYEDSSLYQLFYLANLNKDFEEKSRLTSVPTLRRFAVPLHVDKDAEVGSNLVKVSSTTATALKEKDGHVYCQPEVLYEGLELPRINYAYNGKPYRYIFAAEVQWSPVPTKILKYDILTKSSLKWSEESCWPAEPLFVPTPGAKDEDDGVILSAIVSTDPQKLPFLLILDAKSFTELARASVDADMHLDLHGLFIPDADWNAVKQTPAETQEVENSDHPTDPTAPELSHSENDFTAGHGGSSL
Text: Recombinant His-tag mouse BCO1 was produced in E.coli and purified using Talon CellThru (Clontech Labs, Inc., Mountain View, CA) resin as described previously. β-carotene was delivered in 1% octylthioglucoside. […] All other inhibitors were delivered in ethanol. […] The final concentration of ethanol in all samples was 1%. […] Data plotted as means±standard deviation; n = 3; […] Analysis was done in C57BL/6 wt (3 animals) and Bco1^-/- mice (13 animals).

[2] = system: SCD1; test: SCD1 protein expression in ARPE-19 cells (Western blot densitometry); assay type: cell-based, human; conditions: 10 μM
Experimental: Compounds were dissolved in dimethyl sulfoxide (DMSO) and then added to the cell culture medium. Cells designated as control received an equal amount of dimethyl sulfoxide. After 16 h, cells were incubated with 50 μM palmitic acid triply deuterated (D3) on the methyl group (Cambridge Isotope Laboratories, Tewksbury, MA) for an additional 5 h before harvesting.
Samples were resuspended in 20 μl 4X reducing NuPAGE LDS sample buffer (Invitrogen). For western blot analysis, equal amounts of total protein (50 μg) from cell extracts were subjected to SDS-polyacrylamide gel electrophoresis using 4–12% NUPAGE Bis-Tris gels and then transferred to a nitrocellulose membrane using iBlot® Dry Blotting System (Invitrogen, Carlsbad, CA). After blocking in 5% non-fat milk in Tris-buffered saline (TBS) containing 0.01% Tween 20 for 1 h, the membranes were incubated overnight at 4°C with mouse monoclonal anti-SCD1 antibody (1:200; Kamiya Biomedical Company). Peroxidase-conjugated goat anti-mouse IgG antibody was used as secondary antibody. Immunocomplexes were visualized by a chemiluminescence method using the ECL Prime western blotting Detection Kit (GE Healthcare Life Sciences). The blots were then stripped and reprobed with mouse monoclonal anti-α-tubulin antibody.
Cell lysates were analyzed by Western blotting using mouse monoclonal antibody against SCD1 (upper panel) in comparison with immunoreactivity to α-tubulin which was employed as a loading control (lower panel) and densitometry for each lane was performed and analyzed by ImageJ to provide the SCD1/α-tubulin ratio for each lane. […] Free fatty acids present in lipid extracts were analyzed by LC/MS and SCD1 activity, measured by the conversion of methyl-D3 palmitic acid to methyl-D3 palmitoleic acid, was determined. […] Lipids were extracted from two 100 mm Petri dishes and combined for mass spectrometry analysis. Data plotted as means ± standard deviation; n = 3. […] They are given here as printed results in cells, but it is uncertain whether they fall under the exclusion for gels and blots. / Panel A: the Control lane (1.00) is left out because it is not a substance.

[3] = target: T2, RARβ (Homo sapiens, UniProt P10826); test: GeneBLAzer RAR-beta DA assay, antagonist mode (competition with at-RA); assay type: cell-based; conditions: for competition with all-trans-retinoic acid: at-RA 0.5–1.5 nM, tested 10^−5 to 10^−9 M
T2 sequence (P10826 183-417 limits assumed): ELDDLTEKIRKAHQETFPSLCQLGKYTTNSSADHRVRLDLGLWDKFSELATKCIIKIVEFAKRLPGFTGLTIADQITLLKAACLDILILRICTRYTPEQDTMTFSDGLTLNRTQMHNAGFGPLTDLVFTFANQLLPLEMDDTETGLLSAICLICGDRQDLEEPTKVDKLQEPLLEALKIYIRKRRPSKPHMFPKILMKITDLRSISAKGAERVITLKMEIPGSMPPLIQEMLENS
Experimental: (§1) The potency of agonists and antagonists was measured by GeneBLAzer RAR-beta DA Assay Kit (ThermoFisher Scientific) according to the manufacturer’s recommendations.
The phenylretinamides may have the ability to modulate the expression of proteins and induce cell apoptosis via RAR-dependent and -independent pathways. […] Additionally, apoptosis of neuroblastoma cell lines was blocked by two retinoic acid receptor (RAR)-β/γ-specific antagonists, but not by a RARα-specific antagonist. […] However, in this case the specific RARα-specific antagonist AGN194301 could block fenretinde-induced apoptosis. […] Human retina-derived cells in culture show differences in expression of RAR receptors. […] Clonetics HRPE primary human cells specifically express only RARβ [50].
Fluorescence was measured at excitation (ex) 409 nm/emission (em) 460 and at ex 409nm/em 530 nm and the ratio was determined and plotted against a range of concentrations (10^−5 to 10^−9 M) of the tested compounds.

[4] = mice, after 4 hours of treatment; cited from earlier work
[5] = target: T2, RARβ; test: GeneBLAzer RAR-beta DA assay, agonist mode; assay type: cell-based
Experimental: as §1
The phenylretinamides may have the ability to modulate the expression of proteins and induce cell apoptosis via RAR-dependent and -independent pathways. […] Human retina-derived cells in culture show differences in expression of RAR receptors. […] Clonetics HRPE primary human cells specifically express only RARβ [50].

[6] = target: RBP4 (Homo sapiens, UniProt P02753); parameters: method as in PMID 16303925; conditions: cited from earlier work
[7] = humans; cited from earlier work
[8] = target: T2, RARβ; parameters: method as in Invitrogen; conditions: RARβ agonist assay; ref Invitrogen; read-out: EC50 from Invitrogen; cited from earlier work

| Structure (SMILES) | effect on BCO1 activity ([1]; inhibitor 0–200 μM) | effect on SCD1 expression [2] | competition with all-trans-retinoic acid [3] | IC50 [1] [nM] | metabolite level as % of plasma levels of 4-HPR [4] | IC50 ([1]; 20 μM β-carotene, enzyme preincubated with inhibitor 10 min at 4°C, read-out: IC50 BCO1) [nM] | EC50 [5] | affinity for RBP4 lower than for fenretinide or retinol [6] [fold] | Kd ([6]; read-out: affinity for RBP4) [nM] | metabolite level as % of plasma levels of 4-HPR [7] | IC50 ([3]; competition with 1 nM at-RA) [nM] | EC50 [8] [nM] |
| --- | --- | --- | --- | --- | --- | --- | --- | --- | --- | --- | --- | --- |
| O=C(O)c1ccccc1NC(=O)N1CCC(c2ccccc2C(F)(F)F)CC1 [A1120] | does not affect BCO1 activity | do not affect | cannot compete | – | – | – | – | – | – | – | – | – |
| CC1=C(/C=C/C(C)=C/C=C/C(C)=C/C(=O)Nc2ccc(O)cc2)C(C)(C)CCC1=O [3-keto-HPR, 4-oxo-N-(4-hydroxyphenyl)retinamide] | – | more efficiently inhibits SCD1 expression | – | 4000 | ~ 23% | – | – | – | – | – | – | – |
| COc1ccc(NC(=O)/C=C(C)/C=C/C=C(C)/C=C/C2=C(C)CCCC2(C)C)cc1 [MPR, N-[4-methoxyphenyl]retinamide] | – | do not affect | cannot compete | – | – | 5000 | 1000 nM and 1010 nM | 2 | ~100 | ~ 45% | – | – |
| CC1=C(/C=C/C(C)=C/C=C/C(C)=C/C(=O)Nc2ccc(O)cc2)C(C)(C)CCC1 [fenretinide, N-[4-hydroxyphenyl]retinamide] | – | inhibitory effect on SCD1 expression | – | – | – | – | 560 nM | – | – | – | 10000 | 220 |
